According to publication PMC5448350, “2-Pentadecyl-2-Oxazoline, the Oxazoline of Pea, Modulates Carrageenan-Induced Acute Inflammation” (Frontiers in Pharmacology, 2017):

Target: T1, N-acylethanolamine-hydrolyzing acid amidase (NAAA) (Homo sapiens, UniProt Q02083)
T1 construct: human recombinant NAAA stably expressed in HEK-293 cells (12000 × g membrane fraction)
T1 sequence (Q02083 29-125): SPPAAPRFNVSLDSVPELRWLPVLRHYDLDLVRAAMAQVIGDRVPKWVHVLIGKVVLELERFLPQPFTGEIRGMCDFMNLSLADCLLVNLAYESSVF
T1 sequence (Q02083 126-359): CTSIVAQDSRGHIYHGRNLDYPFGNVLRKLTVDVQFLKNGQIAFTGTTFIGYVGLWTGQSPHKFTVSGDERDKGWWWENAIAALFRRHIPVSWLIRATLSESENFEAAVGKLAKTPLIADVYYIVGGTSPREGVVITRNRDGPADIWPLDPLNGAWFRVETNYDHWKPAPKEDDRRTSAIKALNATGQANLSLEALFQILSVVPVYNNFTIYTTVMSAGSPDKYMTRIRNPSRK
Experiment: [3H]-PEA hydrolysis assay in membranes of HEK-293 cells overexpressing human NAAA, pH […]
Type: cell-based
Details: HEK293

CCCCCCCCCCCCCCCC1=NCCO1 [PEA-OXA, 2-Pentadecyl-2-oxazoline]
inhibition at 50 µM: 75%
